According to article PMC11253546, “Fidelity in plant hormone modifications catalyzed by Arabidopsis GH3 acyl acid amido synthetases” (The Journal of Biological Chemistry, 2024):

What was measured:
AtGH3.11/JAR1 = target: T1, AtGH3.11/JAR1 (Arabidopsis thaliana, UniProt Q9SKE2); test: single-turnover TLC with [α-32P]ATP, acyl-AMP formation; assay type: biochemical; conditions: first half-reaction with JA, no amino acid, 1 mM MgCl2, pH 8.0, 25 °C; labelled compound
T1 sequence (Q9SKE2 1-575): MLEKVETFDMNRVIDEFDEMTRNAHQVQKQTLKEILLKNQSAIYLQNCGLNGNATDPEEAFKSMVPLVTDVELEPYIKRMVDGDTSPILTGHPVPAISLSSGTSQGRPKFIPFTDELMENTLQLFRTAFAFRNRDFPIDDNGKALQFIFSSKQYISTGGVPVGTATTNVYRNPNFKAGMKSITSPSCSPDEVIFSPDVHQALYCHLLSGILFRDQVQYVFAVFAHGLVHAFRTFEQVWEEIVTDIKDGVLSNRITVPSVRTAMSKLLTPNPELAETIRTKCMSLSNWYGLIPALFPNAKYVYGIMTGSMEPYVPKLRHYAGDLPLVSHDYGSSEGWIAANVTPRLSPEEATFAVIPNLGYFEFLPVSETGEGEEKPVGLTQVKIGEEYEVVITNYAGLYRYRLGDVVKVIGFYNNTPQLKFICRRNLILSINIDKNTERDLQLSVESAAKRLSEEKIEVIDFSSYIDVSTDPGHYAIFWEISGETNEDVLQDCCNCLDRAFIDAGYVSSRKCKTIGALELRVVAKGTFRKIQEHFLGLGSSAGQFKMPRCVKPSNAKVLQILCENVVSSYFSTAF

GH3-N2/C5 = tested on: T2, GH3-N2/C5; test: coupled myokinase/pyruvate kinase/lactate dehydrogenase assay of AMP formation, A340; assay type: biochemical, Arabidopsis thaliana; conditions: 1 mM ATP, 5 mM aspartate, 1 mM MgCl2, pH 8.0, 25 °C
T2 construct: gene GH3.2; one fusion chain: AtGH3.2 residues 1-442 then AtGH3.5 residues 450-608; codon-optimized, pET-28a, His-tagged, E. coli Rosetta2 (DE3), monomer
From the text: coupled myokinase/pyruvate kinase/lactate dehydrogenase assay of AMP formation, A340 on GH3-N2/C5

AtGH3.12/PBS3 = target: T3, AtGH3.12/PBS3 (Arabidopsis thaliana, UniProt Q9LYU4); test: TLC with [α-32P]ATP, acyl-AMP and AMP formation; assay type: biochemical; conditions: without or with glutamate, 1 mM MgCl2, pH 8.0, 25 °C
T3 construct: gene GH3.12; once misprinted PBS2
T3 sequence (Q9LYU4 1-575): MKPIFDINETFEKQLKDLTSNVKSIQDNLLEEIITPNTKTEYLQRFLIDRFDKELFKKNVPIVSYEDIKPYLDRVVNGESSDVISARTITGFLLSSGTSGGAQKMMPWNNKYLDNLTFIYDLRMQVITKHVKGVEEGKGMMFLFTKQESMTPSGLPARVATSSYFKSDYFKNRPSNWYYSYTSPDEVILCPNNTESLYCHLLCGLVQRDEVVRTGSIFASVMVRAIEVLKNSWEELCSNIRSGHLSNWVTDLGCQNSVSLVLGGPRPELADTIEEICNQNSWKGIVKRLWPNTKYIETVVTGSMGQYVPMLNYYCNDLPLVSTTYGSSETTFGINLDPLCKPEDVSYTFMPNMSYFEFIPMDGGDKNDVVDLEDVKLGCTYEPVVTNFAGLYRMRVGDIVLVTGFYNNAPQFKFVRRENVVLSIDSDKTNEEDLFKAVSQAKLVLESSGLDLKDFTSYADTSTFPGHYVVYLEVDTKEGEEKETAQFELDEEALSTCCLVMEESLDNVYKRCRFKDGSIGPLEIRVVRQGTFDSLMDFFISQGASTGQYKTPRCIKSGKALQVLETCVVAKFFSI

SMILES | Km (GH3-N2/C5) [µM] | other results
Nc1ncnc2c1ncn2[C@@H]1O[C@H](COP(=O)(O)OP(=O)(O)OP(=O)(O)O)[C@@H](O)[C@H]1O [ATP] | – | single-turnover TLC with [α-32P]ATP, acyl-AMP formation (AtGH3.11/JAR1): rates of turnover from ATP to acyl-AMP (k1)
O=C(O)c1ccccc1 [BA] | 880 ± 68 | –
O=C(O)Cc1c[nH]c2ccccc12 [IAA] | 540 ± 17 | –
O=C(O)Cc1ccccc1 [PAA] | 1500 ± 280 | –
C=C(O[C@@H]1C=C(C(=O)O)C=C[C@H]1O)C(=O)O [chorismate] | – | TLC with [α-32P]ATP, acyl-AMP and AMP formation (AtGH3.12/PBS3): reactions using BA, 4-HBA, and chorismate produced acyl-AMP and AMP
